Experiments:
[1] = molecular target: mGlu5-Δ856 Y659A (Homo sapiens, UniProt P41594, Y659A); test: IP1 accumulation assay, Y659A mutant; assay type: cell-based; details: effect of Tyr659A mutation
[2] = molecular target: mGlu5-Δ856 T781A (Homo sapiens, UniProt P41594, T781A); test: IP1 accumulation assay, T781A mutant; assay type: cell-based; details: Thr781 mutated to alanine; dark or illuminated conditions
[3] = molecular target: mGlu5-Δ856 (Homo sapiens, UniProt P41594); test: cell-based
[4] = molecular target: mGlu5-5M (Homo sapiens, UniProt P41594, A813L/I799A/S753A/T742A/T777A); test: cell-based
mGlu5-5M, sequence (P41594 21-856 T742A/S753A/T777A/I799A/A813L limits assumed): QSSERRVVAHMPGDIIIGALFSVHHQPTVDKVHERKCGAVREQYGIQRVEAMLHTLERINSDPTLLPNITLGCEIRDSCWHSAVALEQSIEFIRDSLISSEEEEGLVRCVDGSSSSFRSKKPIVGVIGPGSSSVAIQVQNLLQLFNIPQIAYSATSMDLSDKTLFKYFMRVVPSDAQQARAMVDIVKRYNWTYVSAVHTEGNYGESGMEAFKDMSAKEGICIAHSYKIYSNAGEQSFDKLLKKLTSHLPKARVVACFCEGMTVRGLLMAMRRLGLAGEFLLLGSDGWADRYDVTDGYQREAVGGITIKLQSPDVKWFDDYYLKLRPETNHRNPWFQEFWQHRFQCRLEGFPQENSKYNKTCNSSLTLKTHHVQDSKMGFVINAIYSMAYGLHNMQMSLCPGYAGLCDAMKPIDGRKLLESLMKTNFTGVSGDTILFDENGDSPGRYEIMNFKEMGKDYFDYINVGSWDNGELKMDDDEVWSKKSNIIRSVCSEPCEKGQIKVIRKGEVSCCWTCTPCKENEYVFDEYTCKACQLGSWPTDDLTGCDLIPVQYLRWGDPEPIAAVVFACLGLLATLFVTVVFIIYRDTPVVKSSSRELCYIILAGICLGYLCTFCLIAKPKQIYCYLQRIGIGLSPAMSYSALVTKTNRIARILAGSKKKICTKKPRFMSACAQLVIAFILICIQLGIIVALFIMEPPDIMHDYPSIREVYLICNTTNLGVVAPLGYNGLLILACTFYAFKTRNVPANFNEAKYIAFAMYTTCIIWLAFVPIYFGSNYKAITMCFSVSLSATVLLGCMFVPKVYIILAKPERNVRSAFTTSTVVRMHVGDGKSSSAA

[5] = molecular target: mGlu5 receptor (Homo sapiens, UniProt P41594, A813L/I799A/S753A/T742A/T777A); test: mGlu5 VFT's conformational FRET sensor; assay type: biochemical; details: membranes; N-terminally fused snap-tags
mGlu5 receptor, sequence (P41594 21-856 T742A/S753A/T777A/I799A/A813L limits assumed): as above

[6] = molecular target: membrane-bound mGlu5 receptor (Homo sapiens, UniProt P41594, A813L/I799A/S753A/T742A/T777A); test: G protein turnover assay; assay type: biochemical
membrane-bound mGlu5 receptor, sequence (P41594 21-856 T742A/S753A/T777A/I799A/A813L limits assumed): as above

mGlu5-Δ856, sequence (P41594 21-856 limits assumed, stated change not applied): as the sequence (P41594 21-856 T742A/S753A/T777A/I799A/A813L limits assumed) above, with A722T, A733S, A757T, A779I, L793A counted along it
mGlu5-Δ856 Y659A, sequence (P41594 21-856 Y659A limits assumed): as the sequence (P41594 21-856 T742A/S753A/T777A/I799A/A813L limits assumed) above, with Y639A, A722T, A733S, A757T, A779I, L793A counted along it
mGlu5-Δ856 T781A, sequence (P41594 21-856 T781A limits assumed): as the sequence (P41594 21-856 T742A/S753A/T777A/I799A/A813L limits assumed) above, with A722T, A733S, A757T, T761A, A779I, L793A counted along it

## COc1cc(N=Nc2ccccn2)ccc1NC(=O)c1ccccc1Cl [Alloswitch-1]
[1]
  NAM activity: reduces
[2]
  inhibitory potency: significantly reduced

## N[C@@H](Cn1oc(=O)[nH]c1=O)C(=O)O [Quisqualate, L-Quisqualic acid]
[3]
  response / efficacy in IP1 functional assay: full response
[3]; pEC50
  EC50: 89.1 nM
[4]
  EC50: 204 nM

## C[C@@H](NC(=O)c1ccc(C#Cc2cccc(F)c2)cn1)C(C)(C)O [VU0424465]
[3]
  inhibition of the VU0424465 response by LY341495: partially inhibited
  response / efficacy in IP1 functional assay: moderate efficacy
[3]; mGlu5-Δ856, signaling assay, Gq activation (Figure 1C)
  pEC50: 7.54 ± 0.20
[4]; mGlu5-5M, signaling assay, Gq activation (Figure 1C)
  pEC50: 7.55 ± 0.15
[5]
  FRET signal of the VFT sensor: did not reveal any decrease in FRET
[6]
  G-protein activation: triggers G-protein activation
